Literature values as cited in US7402577B2, “Androstane 17-beta-carboxamides as androgen receptor modulators” (priority 2001, dated 2008).

How the values were obtained:
spinal BMD = settings: after 7 years of treatment
fractures = settings: postmenopausal osteoporotic women, median of 22 months of treatment

Row | Compound | increase in spinal BMD (spinal BMD) | reduction in nonvertebral fractures (fractures) | reduction in spine fractures (fractures)
1 | NCCCC(O)(P(=O)([O-])O)P(=O)(O)O.O.O.O.[Na+] [alendronate, (4-amino-1-hydroxybutylidene)-bis-phosphonate monosodium trihydrate] | ≤ 11% | – | –
2 | hPTH(1-34): human parathyroid hormone 1-34 fragment (SVSEIQLMHNLGKHLNSMERVEWLRKKLQDVHNF; Parathyroid hormone; UniProt P01270 32-65, looked up, fragment) | – | 54% | ≥ 65%
